Assay results published in the supplement of paper PMC11451515.

Test system: SEM cells
Test: cell viability relative to DMSO control; higher = less cytotoxic
Details: 48 h
Outline: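 NOMO1, SEM and P12-Ichikawa leukemia cells spent at least four passages adapting to each medium before use. They were seeded at 500 cells/well (NOMO1, SEM) or 1000 cells/well (P12-Ichikawa) in 5 μl in 1536-well plates and pin-dosed with library compounds in DMSO at 11 threefold steps from 47 μM down to 0.79 nM. After 48 h at 37°C, CellTiter-Glo One luminescence was read. Viability is reported as a percentage of the DMSO wells on each plate, with cell-free wells as background.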

[1] = HPLM + 10% dialyzed FBS, 0.000781 µM
[2] = HPLM + 10% dialyzed FBS, 0.00234 µM
[3] = HPLM + 10% dialyzed FBS, 0.00702 µM
[4] = HPLM + 10% dialyzed FBS, 0.0211 µM
[5] = HPLM + 10% dialyzed FBS, 0.0632 µM
[6] = HPLM + 10% dialyzed FBS, 0.19 µM
[7] = HPLM + 10% dialyzed FBS, 0.569 µM
[8] = HPLM + 10% dialyzed FBS, 1.71 µM
[9] = HPLM + 10% dialyzed FBS, 5.12 µM
[10] = HPLM + 10% dialyzed FBS, 15.4 µM
[11] = HPLM + 10% dialyzed FBS, 46.1 µM
[12] = RPMI 5 mM glucose + 10% FBS, 0.000781 µM
[13] = RPMI 5 mM glucose + 10% FBS, 0.00234 µM
[14] = RPMI 5 mM glucose + 10% FBS, 0.00702 µM
[15] = RPMI 5 mM glucose + 10% FBS, 0.0211 µM
[16] = RPMI 5 mM glucose + 10% FBS, 0.0632 µM
[17] = RPMI 5 mM glucose + 10% FBS, 0.19 µM
[18] = RPMI 5 mM glucose + 10% FBS, 0.569 µM
[19] = RPMI 5 mM glucose + 10% FBS, 1.71 µM
[20] = RPMI 5 mM glucose + 10% FBS, 5.12 µM
[21] = RPMI 5 mM glucose + 10% FBS, 15.4 µM
[22] = RPMI 5 mM glucose + 10% FBS, 46.1 µM
[23] = RPMI 5 mM glucose + 10% dialyzed FBS, 0.000781 µM
[24] = RPMI 5 mM glucose + 10% dialyzed FBS, 0.00234 µM
[25] = RPMI 5 mM glucose + 10% dialyzed FBS, 0.00702 µM
[26] = RPMI 5 mM glucose + 10% dialyzed FBS, 0.0211 µM
[27] = RPMI 5 mM glucose + 10% dialyzed FBS, 0.0632 µM
[28] = RPMI 5 mM glucose + 10% dialyzed FBS, 0.19 µM
[29] = RPMI 5 mM glucose + 10% dialyzed FBS, 0.569 µM
[30] = RPMI 5 mM glucose + 10% dialyzed FBS, 1.71 µM
[31] = RPMI 5 mM glucose + 10% dialyzed FBS, 5.12 µM
[32] = RPMI 5 mM glucose + 10% dialyzed FBS, 15.4 µM
[33] = RPMI 5 mM glucose + 10% dialyzed FBS, 46.1 µM

Structure (SMILES) | cell viability [1] | cell viability [2] | cell viability [3] | cell viability [4] | cell viability [5] | cell viability [6] | cell viability [7] | cell viability [8] | cell viability [9] | cell viability [10] | cell viability [11] | cell viability [12] | cell viability [13] | cell viability [14] | cell viability [15] | cell viability [16] | cell viability [17] | cell viability [18] | cell viability [19] | cell viability [20] | cell viability [21] | cell viability [22] | cell viability [23] | cell viability [24] | cell viability [25] | cell viability [26] | cell viability [27] | cell viability [28] | cell viability [29] | cell viability [30] | cell viability [31] | cell viability [32] | cell viability [33]
CO/N=C(\C(=O)N[C@@H]1C(=O)N2C(C(=O)OCOC(=O)C(C)(C)C)=C(/C=C\c3scnc3C)CS[C@H]12)c1csc(N)n1 | 75.6% | 89.4% | 86.9% | 80.8% | 93.7% | 101% | 94.8% | 97.3% | 86.7% | 90.6% | 70.4% | 87.1% | 90.7% | 91.4% | 76.6% | 89% | 103% | 91.5% | 98.9% | 86.5% | 65.2% | 58.5% | 75.3% | 101% | 108% | 93.7% | 119% | 102% | 99.4% | 125% | 105% | 73% | 62.9%
O=c1[nH]c(=O)n(C2CCCO2)cc1F (configuration not stated) | 92.4% | 124% | 105% | 119% | 122% | 127% | 92.5% | 111% | 90.2% | 104% | 99.1% | 123% | 120% | 109% | 126% | 115% | 110% | 127% | 114% | 123% | 122% | 104% | 70.2% | 110% | 109% | 117% | 99.7% | 115% | 108% | 109% | 102% | 104% | 97.8%
COC1=CC=C2/C3=N/CCN3\C(=N/C2=C1OC)NC(=O)C4=CC=CN=C4 | 98.5% | 98.2% | 106% | 96.8% | 101% | 104% | 96.7% | 103% | 87.1% | 82.5% | 64.1% | 91.6% | 94.4% | 99.7% | 89.5% | 99.5% | 79.4% | 85.2% | 99.6% | 76.6% | 80.6% | 55.7% | 122% | 111% | 111% | 103% | 117% | 113% | 99% | 92.9% | 84% | 81.1% | 69.2%
COc1cccc2c1CCCC2CCCN1CCN(C2CCCCC2)CC1 (configuration not stated) | 88.4% | 85% | 80.9% | 91.1% | 91.6% | 110% | 96.9% | 88.8% | 97.1% | 83.5% | 55.3% | 87.8% | 85.6% | 89.9% | 91.1% | 101% | 107% | 103% | 97% | 81.3% | 79.1% | 42.9% | 87.7% | 83.3% | 97% | 102% | 111% | 114% | 104% | 91% | 96.7% | 87.6% | 52.5%
OC(CN1CCN(c2cccc(Cl)c2)CC1)C(c1ccccc1)c1ccccc1 (configuration not stated) | 99.1% | 97.9% | 102% | 101% | 104% | 110% | 92.1% | 10.6% | 8.66% | 7.09% | 7.14% | 101% | 95.2% | 106% | 107% | 111% | 32.4% | 24% | 6.74% | 8% | 8.3% | 7.07% | 111% | 95.2% | 104% | 103% | 105% | 38.2% | 42.9% | 7.36% | 8.19% | 8.02% | 7.53%
CCOC(=O)Nc1ccc(NCc2ccc(F)cc2)nc1N | 111% | 104% | 119% | 102% | 105% | 117% | 94.9% | 114% | 99.9% | 115% | 101% | 117% | 121% | 119% | 117% | 125% | 118% | 118% | 116% | 109% | 116% | 65.3% | 115% | 98.9% | 120% | 128% | 131% | 128% | 138% | 113% | 104% | 115% | 80.2%
CCOC1=CC=CC=C1N\2C(=O)C3=C(C=CC=C3)\N=C2C(C)N4CCN(CC4)C(=O)COC5=CC=C(Cl)C=C5 (configuration not stated) | 112% | 111% | 111% | 123% | 114% | 115% | 104% | 26.1% | 9.76% | 5.2% | 3.06% | 124% | 115% | 108% | 101% | 110% | 114% | 28% | 6.16% | 4.12% | 3.03% | 1.64% | 113% | 131% | 119% | 116% | 125% | 136% | 68.6% | 9.93% | 6.21% | 4.51% | 2.93%
NC/1=N/C(=O)N(/C=N1)[C@@H]2O[C@H](CO)[C@@H](O)[C@H]2O | 85.7% | 107% | 117% | 106% | 76.2% | 100% | 104% | 105% | 75.4% | 24.5% | 3.65% | 95.7% | 107% | 99.5% | 102% | 70.9% | 110% | 90.4% | 94.8% | 75.1% | 35.3% | 7.85% | 90.8% | 87.8% | 82% | 90.1% | 69.7% | 93.5% | 82.3% | 74.6% | 38.9% | 6.43% | 3.29%
C[C@]12CCC\3=C\4CCC(=O)\C=C4CC[C@H]3[C@@H]1CC[C@@]2(O)CC#N | 97.2% | 103% | 123% | 97% | 124% | 118% | 121% | 144% | 137% | 132% | 115% | 117% | 124% | 116% | 88.3% | 143% | 116% | 138% | 130% | 146% | 139% | 128% |  |  |  |  |  |  |  |  |  |  | 
C[C@H]1COC/2=C1/C(=O)C(=O)C3=C4CCCC(C)(C)C4=CC=C23 | 116% | 93.8% | 113% | 126% | 126% | 134% | 125% | 106% | 92.1% | 84.1% | 43.1% | 124% | 114% | 135% | 128% | 141% | 130% | 106% | 85.3% | 42.1% | 38.1% | 12.5% | 112% | 107% | 118% | 128% | 140% | 116% | 111% | 104% | 67.4% | 64.5% | 17.3%
NC(=O)NO | 83% | 79.5% | 89.4% | 85.6% | 93.5% | 96.1% | 80.1% | 75.2% | 31.6% | 13.8% | 2.15% | 99.3% | 89.3% | 96.1% | 94.8% | 100% | 93% | 103% | 86.1% | 37.2% | 7.56% | 1.61% | 77.9% | 79.6% | 93% | 88.4% | 96.2% | 84.4% | 95.5% | 87% | 32.3% | 5.86% | 1.96%
OC1=CC2=C(C(=C1)O)C(=O)\C(=C(/O2)C3=CC(=C(O)C=C3)O)O | 89.1% | 84.2% | 93.4% | 99.4% | 98.2% | 94.4% | 97.4% | 110% | 111% | 94.8% | 75.1% | 79.7% | 97.7% | 106% | 96.1% | 99.6% | 109% | 106% | 105% | 108% | 102% | 71.5% | 83.6% | 85.2% | 92.1% | 88.3% | 111% | 104% | 115% | 101% | 92.6% | 104% | 69.8%
CC(C)[C@H](N)C(=O)OCCOC[N]1C=NC2=C1\N=C(N)/NC2=O | 92.4% | 101% | 119% | 127% | 121% | 117% | 119% | 116% | 103% | 115% | 107% | 80.4% | 85.4% | 104% | 109% | 116% | 95.3% | 102% | 90.5% | 92.7% | 98.7% | 78% | 107% | 112% | 126% | 134% | 122% | 123% | 126% | 166% | 112% | 133% | 99%
COc1ncc(-c2ccc3c(Nc4cc(Oc5cc(F)cc(F)c5)cc(C(=O)O)c4)c([S+](=O)([O-])NC4CC4)cnc3c2)c(OC)n1 | 90.4% | 78.2% | 77.5% | 86% | 85.2% | 79.4% | 88.1% | 82.2% | 75.5% | 78% | 71.5% | 135% | 107% | 117% | 133% | 130% | 119% | 138% | 100% | 109% | 119% | 113% | 102% | 83.5% | 79.7% | 88.6% | 85% | 89.7% | 97.5% | 75.4% | 82.1% | 104% | 67.9%
O=[S+]([O-])(c1cccc2cnccc12)N1CCCNCC1 | 103% | 104% | 121% | 120% | 121% | 127% | 138% | 113% | 117% | 127% | 115% | 123% | 115% | 130% | 121% | 151% | 146% | 133% | 143% | 139% | 148% | 54.9% | 110% | 108% | 123% | 135% | 145% | 136% | 138% | 172% | 145% | 146% | 93.3%
CC(C)C[C@H](NC(=O)[C@@H](O)[C@H](N)Cc1ccccc1)C(=O)O | 86% | 122% | 121% | 131% | 136% | 119% | 114% | 128% | 120% | 114% | 10.7% | 59.2% | 122% | 127% | 123% | 133% | 115% | 118% | 121% | 109% | 117% | 8.04% | 62.3% | 119% | 136% | 135% | 129% | 123% | 127% | 132% | 131% | 116% | 13.2%
